According to US8969516B2, “Method of hydrolysis of peptide bond” (priority 2006, dated 2015):

Test: MALDI-TOF screening of Ni^2+ dependent hydrolysis in a combinatorial peptide library
Assay type: physicochemical
Conditions: CH3CO-Gly-Ala-Ser-X-His-Z-Lys-Phe-Leu-NH2 library, Ni^2+ 2 mM, pH 8.2, 10 mM Tris, score=24/tm
Method in brief: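 MALDI-TOF read-out: appearance of Ser/Thr-X-His-Z-Lys-Phe-Leu-NH2 product signals, plus loss of substrate signals, checked by eye at 2, 4, 6, 8 h. Conditions: 1 mM peptide mixture, 2 mM Ni2+, 10 mM Tris pH 8.2, 37 or 45 °C.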

Substance	hydrolysis score from MALDI-TOF screening (37° C.)	hydrolysis score from MALDI-TOF screening (45° C.)
Ac-GASRHSKFL-NH2 [SRHS]	3 (a score of 3 for detection at 8 hours)	4 (a score of 4 for detection at 6 hours)
Ac-GASRHTKFL-NH2 [SRHT]	0 (a score of 0 if no trace of the product of hydrolysis was seen after 8 hours of incubation)	3 (a score of 3 for detection at 8 hours)
Ac-GASRHVKFL-NH2 [SRHV]	6 (a score of 6 for detection at 4 hours)	12 (a score of 12, if it was seen to be partially hydrolysed at 2 hours)
Ac-GASRHYKFL-NH2 [SRHY]	4 (a score of 4 for detection at 6 hours)	6 (a score of 6 for detection at 4 hours)
Ac-GASSHAKFL-NH2 [SSHA]	0 (a score of 0 if no trace of the product of hydrolysis was seen after 8 hours of incubation)	3 (a score of 3 for detection at 8 hours)
Ac-GASSHDKFL-NH2 [SSHD]	0 (a score of 0 if no trace of the product of hydrolysis was seen after 8 hours of incubation)	3 (a score of 3 for detection at 8 hours)
Ac-GASSHEKFL-NH2 [SSHE]	0 (a score of 0 if no trace of the product of hydrolysis was seen after 8 hours of incubation)	3 (a score of 3 for detection at 8 hours)
Ac-GASSHFKFL-NH2 [SSHF]	3 (a score of 3 for detection at 8 hours)	3 (a score of 3 for detection at 8 hours)
Ac-GASSHGKFL-NH2 [SSHG]	0 (a score of 0 if no trace of the product of hydrolysis was seen after 8 hours of incubation)	3 (a score of 3 for detection at 8 hours)
Ac-GASSHHKFL-NH2 [SSHH]	0 (a score of 0 if no trace of the product of hydrolysis was seen after 8 hours of incubation)	3 (a score of 3 for detection at 8 hours)
Ac-GASSHIKFL-NH2 [SSHI]	6 (a score of 6 for detection at 4 hours)	6 (a score of 6 for detection at 4 hours)
Ac-GASSHKKFL-NH2 [SSHK]	4 (a score of 4 for detection at 6 hours)	6 (a score of 6 for detection at 4 hours)
Ac-GASSHLKFL-NH2 [SSHL]	6 (a score of 6 for detection at 4 hours)	6 (a score of 6 for detection at 4 hours)
Ac-GASSHNKFL-NH2 [SSHN]	0 (a score of 0 if no trace of the product of hydrolysis was seen after 8 hours of incubation)	0 (a score of 0 if no trace of the product of hydrolysis was seen after 8 hours of incubation)
Ac-GASSHPKFL-NH2 [SSHP]	0 (a score of 0 if no trace of the product of hydrolysis was seen after 8 hours of incubation)	0 (a score of 0 if no trace of the product of hydrolysis was seen after 8 hours of incubation)
Ac-GASSHQKFL-NH2 [SSHQ]	0 (a score of 0 if no trace of the product of hydrolysis was seen after 8 hours of incubation)	0 (a score of 0 if no trace of the product of hydrolysis was seen after 8 hours of incubation)
Ac-GASSHRKFL-NH2 [SSHR]	6 (a score of 6 for detection at 4 hours)	6 (a score of 6 for detection at 4 hours)
Ac-GASSHSKFL-NH2 [SSHS]	0 (a score of 0 if no trace of the product of hydrolysis was seen after 8 hours of incubation)	3 (a score of 3 for detection at 8 hours)
Ac-GASSHTKFL-NH2 [SSHT]	0 (a score of 0 if no trace of the product of hydrolysis was seen after 8 hours of incubation)	0 (a score of 0 if no trace of the product of hydrolysis was seen after 8 hours of incubation)
Ac-GASSHVKFL-NH2 [SSHV]	3 (a score of 3 for detection at 8 hours)	4 (a score of 4 for detection at 6 hours)
Ac-GASSHWKFL-NH2 [SSHW]	6 (a score of 6 for detection at 4 hours)	12 (a score of 12, if it was seen to be partially hydrolysed at 2 hours)
Ac-GASSHYKFL-NH2 [SSHY]	3 (a score of 3 for detection at 8 hours)	3 (a score of 3 for detection at 8 hours)

Substance	hydrolysis score from MALDI-TOF screening (37° C.)	hydrolysis score from MALDI-TOF screening (45° C.)
Ac-GASTHAKFL-NH2 [STHA]	0 (a score of 0 if no trace of the product of hydrolysis was seen after 8 hours of incubation)	0 (a score of 0 if no trace of the product of hydrolysis was seen after 8 hours of incubation)
Ac-GASTHDKFL-NH2 [STHD]	0 (a score of 0 if no trace of the product of hydrolysis was seen after 8 hours of incubation)	0 (a score of 0 if no trace of the product of hydrolysis was seen after 8 hours of incubation)
Ac-GASTHEKFL-NH2 [STHE]	0 (a score of 0 if no trace of the product of hydrolysis was seen after 8 hours of incubation)	0 (a score of 0 if no trace of the product of hydrolysis was seen after 8 hours of incubation)
Ac-GASTHFKFL-NH2 [STHF]	0 (a score of 0 if no trace of the product of hydrolysis was seen after 8 hours of incubation)	3 (a score of 3 for detection at 8 hours)
Ac-GASTHGKFL-NH2 [STHG]	0 (a score of 0 if no trace of the product of hydrolysis was seen after 8 hours of incubation)	0 (a score of 0 if no trace of the product of hydrolysis was seen after 8 hours of incubation)
Ac-GASTHHKFL-NH2 [STHH]	0 (a score of 0 if no trace of the product of hydrolysis was seen after 8 hours of incubation)	3 (a score of 3 for detection at 8 hours)
Ac-GASTHIKFL-NH2 [STHI]	4 (a score of 4 for detection at 6 hours)	6 (a score of 6 for detection at 4 hours)
Ac-GASTHKKFL-NH2 [STHK]	3 (a score of 3 for detection at 8 hours)	6 (a score of 6 for detection at 4 hours)
Ac-GASTHLKFL-NH2 [STHL]	4 (a score of 4 for detection at 6 hours)	6 (a score of 6 for detection at 4 hours)
Ac-GASTHMKFL-NH2 [STHM]	0 (a score of 0 if no trace of the product of hydrolysis was seen after 8 hours of incubation)	0 (a score of 0 if no trace of the product of hydrolysis was seen after 8 hours of incubation)
Ac-GASTHNKFL-NH2 [STHN]	0 (a score of 0 if no trace of the product of hydrolysis was seen after 8 hours of incubation)	0 (a score of 0 if no trace of the product of hydrolysis was seen after 8 hours of incubation)
Ac-GASTHPKFL-NH2 [STHP]	0 (a score of 0 if no trace of the product of hydrolysis was seen after 8 hours of incubation)	0 (a score of 0 if no trace of the product of hydrolysis was seen after 8 hours of incubation)
Ac-GASTHQKFL-NH2 [STHQ]	0 (a score of 0 if no trace of the product of hydrolysis was seen after 8 hours of incubation)	0 (a score of 0 if no trace of the product of hydrolysis was seen after 8 hours of incubation)
Ac-GASTHRKFL-NH2 [STHR]	3 (a score of 3 for detection at 8 hours)	6 (a score of 6 for detection at 4 hours)
Ac-GASTHSKFL-NH2 [STHS]	0 (a score of 0 if no trace of the product of hydrolysis was seen after 8 hours of incubation)	0 (a score of 0 if no trace of the product of hydrolysis was seen after 8 hours of incubation)
Ac-GASTHTKFL-NH2 [STHT]	0 (a score of 0 if no trace of the product of hydrolysis was seen after 8 hours of incubation)	0 (a score of 0 if no trace of the product of hydrolysis was seen after 8 hours of incubation)
Ac-GASTHVKFL-NH2 [STHV]	0 (a score of 0 if no trace of the product of hydrolysis was seen after 8 hours of incubation)	6 (a score of 6 for detection at 4 hours)
Ac-GASTHWKFL-NH2 [STHW]	4 (a score of 4 for detection at 6 hours)	6 (a score of 6 for detection at 4 hours)
Ac-GASTHYKFL-NH2 [STHY]	0 (a score of 0 if no trace of the product of hydrolysis was seen after 8 hours of incubation)	3 (a score of 3 for detection at 8 hours)
Ac-GASVHAKFL-NH2 [SVHA]	0 (a score of 0 if no trace of the product of hydrolysis was seen after 8 hours of incubation)	0 (a score of 0 if no trace of the product of hydrolysis was seen after 8 hours of incubation)
Ac-GASVHDKFL-NH2 [SVHD]	0 (a score of 0 if no trace of the product of hydrolysis was seen after 8 hours of incubation)	0 (a score of 0 if no trace of the product of hydrolysis was seen after 8 hours of incubation)
